Source: patent US8414923B2, “Immobilization of bioactive molecules within a polymeric substrate” (priority 2007, dated 2013)
Several values for one entry are separate records, joined by “and”; a condition that tells them apart may be missing. Identical values can stand only once.

Experiments:
[1] = system: BALB/c mice; test: Glycemia after oral insulin solution (not seized in polymer) in BALB/c mice; assay type: in vivo; settings: for Glycemia: oral insulin solution 4 IU/kg, group averages (4 groups of 5 mice)
Description: Excipients: Zinc Chloride, glycerol, metacresol, Sodium hydroxide, Chloridic acid, and water suitable for injections. • The irradiation conditions ensuring the best quality of the final product has been described. • Its release or liberation under laboratory conditions and in laboratory animals has been studied. • Bioavailability in laboratory animals, has been studied. • Laboratory experimental pharmacological steps are included. The determination of glycemia in blood is performed employing the following apparatus:
Measuring type device: Accu-Chek Active
The measured values listed in the table are shown averaged in FIG. 1.
GLYCEMIA as a function of time, averaged in four groups of BALB/c mice (five mice in each group), to which oral insulin solution (4 IU/kg) was administered (insulin without been seized into polymer).

[2] = cited from earlier work
[3] = patients under insulin treatment; cited from earlier work
[4] = average action profile after subcutaneous injection

Biosynthetic human insulin
Change of glycemia in mice ([1]; 30 to 75 minutes after oral administration of insulin solution): slight diminution of glycemia | Glycemia ([1]; time 0 min): 100 mg/dL and 102 mg/dL and 105 mg/dL | Glycemia ([1]; time 15 min): 98 mg/dL and 97 mg/dL and 96 mg/dL | Glycemia ([1]; time 30 min): 101 mg/dL and 102 mg/dL and 103 mg/dL and 105 mg/dL | Glycemia ([1]; time 60 min): 90 mg/dL and 93 mg/dL and 98 mg/dL and 96 mg/dL | Glycemia ([1]; time 90 min): 93 mg/dL and 95 mg/dL and 90 mg/dL and 94 mg/dL | Glycemia ([1]; time 180 min): 104 mg/dL and 102 mg/dL and 105 mg/dL and 100 mg/dL | Action profile: Duration [2, 4]: 7 to 8 h | Action profile: Initial [2, 4]: within the first half hour | Bond to plasmatic proteins ([2]; except circulating insulin antibodies): No significative bond to plasmatic proteins | Average life (t½) of insulin in the bloodstream ([2]; in bloodstream): only of a few minutes | t½ ([2]; injected (subcutaneous) insulin, clinical studies, determined by absorption): 2 to 5 h | Frequency of changes in the levels of glucose in the blood [3]: < 1/1000
